Laboratory results from patent publication US20110319416A1, “Subunit Selective NMDA Receptor Antagonists For The Treatment Of Neurological Conditions” (EMORY UNIVERSITY, priority 2009, published 2011).
Like-named read-outs stand apart in the source and are kept apart here. Marks after values point to notes of the source that are not given here. Each block holds one molecule with its values, some of them ahead of it.

Columns and labels:
NR2A [1] = target: T1, NR2A (Homo sapiens, UniProt Q05586+Q12879); details: cited from earlier work; for Kb: Kb determined by Schild analysis, read-out: 2A (μM) Kb
NR2B [2] = target: T2, NR2B (Homo sapiens, UniProt Q05586+Q13224); details: Kb determined by Schild analysis; read-out: 2B (μM) Kb; cited from earlier work
NR2B [3] = target: T2, NR2B
NR1/NR2A [4] = target: NR1/NR2A (Rattus norvegicus, UniProt Q00959); experiment: Two electrode voltage clamp, Xenopus oocytes expressing recombinant NR1/NR2A; assay type: cell-based; details: for 2A percent response at the maximum tested concentration: at 100 μM
Description: (§1) Quality of synthesized cRNA was assessed by gel electrophoresis, and quantity was estimated by spectroscopy and gel electrophoresis. Stage V and VI oocytes were surgically removed from the ovaries of large, well-fed and healthy Xenopus laevis anesthetized with 3-amino-benzoic acid ethyl ester (3 gm/l) as previously described. Clusters of isolated oocytes were incubated with 292 U/ml Worthington (Freehold, N.J.) type IV collagenase or 1.3 mg/ml collagenase (Life Technologies, Gaithersburg, MD; 17018-029) for 2 hr in Ca^2+-free solution comprised of (in mM) 115 NaCl, 2.5 KCl, and 10 HEPES, pH 7.5, with slow agitation to remove the follicular cell layer. Oocytes were then washed extensively in the same solution supplemented with 1.8 mM CaCl2 and maintained in Barth's solution comprised of (in mM): 88 NaCl, 1 KCl, 2.4 NaHCO3, 10 HEPES, 0.82 MgSO4, 0.33 Ca(NO3)2, and 0.91 CaCl2 and supplemented with 100 μg/m1 gentamycin, 10 μg/ml streptomycin, and 10 μg/ml penicillin. Oocytes were manually defolliculated and injected within 24 hrs of isolation with 3-5 ng of NR1 subunit cRNA and 7-10 ng of NR2 cRNA subunit in a 50 nl volume, or 5-10 ng of AMPA or kainate receptor cRNAs in a 50 nl volume, and incubated in Barth's solution at 18° C. for 1-7 d. Glass injection pipettes had tip sizes ranging from 10-20 microns, and were backfilled with mineral oil.
(§2) Two electrode voltage-clamp recordings were made 2-7 days post-injection as previously described. Oocytes were placed in a dual-track plexi-glass recording chamber with a single perfusion line that splits in a Y-configuration to perfuse two oocytes. Dual recordings were made at room temperature (23° C.) using two Warner OC725B two-electrode voltage clamp amplifiers, arranged as recommended by the manufacturer. Glass microelectrodes (1-10 Megaohms) were filled with 300 mM KCl (voltage electrode) or 3 M KCl (current electrode). The bath clamps communicated across silver chloride wires placed into each side of the recording chamber, both of which were assumed to be at a reference potential of 0 mV. Oocytes were perfused with a solution comprised of (in mM) 90 NaCl, 1 KCl, 10 HEPES, and 0.5 BaCl2; pH was adjusted by addition of 1-3 M NaOH of HC1 to 7.4. Oocytes were recorded under voltage clamp at −40 mV. […] In some experiments, 10 μM EDTA was obtained by adding a 1:1000 dilution of 10 mM EDTA, in order to chelate contaminant divalent ions such as Zn^2+. […] Concentration effect curves consisting of 4 to 8 concentrations were obtained in this manner. The baseline leak current at −40 mV was measured before and after recording, and the full recording linearly corrected for any change in leak current. […] Each experiment consisted of recordings from 3 to 10 oocytes obtained from a single frog. Results from multiple experiments were pooled, and the average percent responses at antagonist concentrations were fitted by the equation,
(§3) Percent Response=(100−minimum)/(1+([conc]/IC50)nH)+minimum

NR1/NR2D [5] = target: NR1/NR2D (Rattus norvegicus, UniProt P35439+Q62645); experiment: Two electrode voltage clamp, Xenopus oocytes expressing recombinant NR1/NR2D; assay type: cell-based; details: logistic fit, minimum forced to 0; read-out: 2D IC50
Description: as §1, §2, §3

NR1/NR2C [6] = target: NR1/NR2C (Rattus norvegicus, UniProt P35439+Q00961); experiment: Two electrode voltage clamp, Xenopus oocytes expressing recombinant NR1/NR2C; assay type: cell-based; details: logistic fit, minimum forced to 0; read-out: 2C IC50
Description: as §1, §2, §3

NR1/NR2B [7] = target: NR1/NR2B (Rattus norvegicus, UniProt P35439+Q00960); experiment: Two electrode voltage clamp, Xenopus oocytes expressing recombinant NR1/NR2B; assay type: cell-based; details: logistic fit, minimum forced to 0; read-out: 2B IC50
Description: as §1, §2, §3

NR1/NR2A [8] = target: NR1/NR2A (Rattus norvegicus, UniProt P35439+Q00959); experiment: Two electrode voltage clamp, Xenopus oocytes expressing recombinant NR1/NR2A; assay type: cell-based; details: logistic fit, minimum forced to 0; read-out: 2A IC50
Description: as §1, §2, §3

NR1/NR2C [9] = target: NR1/NR2C (Rattus norvegicus, UniProt Q00961); experiment: Two electrode voltage clamp, Xenopus oocytes expressing recombinant NR1/NR2C; assay type: cell-based
Description: as §1, §2, §3

NR1/NR2B [10] = target: NR1/NR2B (Rattus norvegicus, UniProt Q00960); experiment: Two electrode voltage clamp, Xenopus oocytes expressing recombinant NR1/NR2B; assay type: cell-based
Description: as §1, §2, §3

NR2D [11] = target: T3, NR2D (Homo sapiens, UniProt O15399+Q05586); experiment: Literature functional antagonist potency at NR2D (Table 1); assay type: cell-based; details: Kb ratio
NR2B [12] = target: T2, NR2B; experiment: Literature functional antagonist potency at NR2B (Table 1); details: Kb ratio
NR2D [13] = target: T3, NR2D; details: Kb determined by Schild analysis; read-out: 2D (μM) Kb; cited from earlier work
NR2C [14] = target: T4, NR2C (Homo sapiens, UniProt Q05586+Q14957); details: Kb determined by Schild analysis; read-out: 2C (μM) Kb; cited from earlier work
NR1/NR2D [15] = target: NR1/NR2D (Rattus norvegicus, UniProt Q62645); experiment: Two electrode voltage clamp, Xenopus oocytes expressing recombinant NR1/NR2D; assay type: cell-based
Description: as §1, §2, §3

GluR1 = GluR1 (Rattus norvegicus, UniProt P19490); experiment: Two electrode voltage clamp, Xenopus oocytes expressing GluR1; assay type: cell-based
Description: as §1, §2, §3

[16] = target: homomeric GluR6 kainate receptor (Rattus norvegicus, UniProt P42260); experiment: Two electrode voltage clamp, Xenopus oocytes expressing homomeric GluR6; assay type: cell-based; details: in words
Description: Real time Ca^2+ signals were recorded in 96 well plates using FlexStation II multi-mode plate readers. […] Test compounds were added to each well together with agonist to yield a final well concentration of 10 μM test compound in 0.9% DMSO. Compounds that altered the response of any well compared to on-plate control wells beyond 2.5-fold of the standard deviation (calculated from all wells on the plate) or by more than 40% of the control response on a given plate were selected for secondary screening using two-electrode voltage-clamp recordings from Xenopus oocytes expressing recombinant NR1/NR2D receptors. To complete the secondary screen, we obtained selected compounds in powder form. […] We subsequently initiated novel synthesis on this class of compound.
Quality of synthesized cRNA was assessed by gel electrophoresis, and quantity was estimated by spectroscopy and gel electrophoresis. Stage V and VI oocytes were surgically removed from the ovaries of large, well-fed and healthy Xenopus laevis anesthetized with 3-amino-benzoic acid ethyl ester (3 gm/l) as previously described. […]
Two electrode voltage-clamp recordings were made 2-7 days post-injection as previously described. […] Oocytes were recorded under voltage clamp at −40 mV. […] The baseline leak current at −40 mV was measured before and after recording, and the full recording linearly corrected for any change in leak current. […]

NR2B [17] = target: T2, NR2B; details: Ki estimated from equilibrium binding displacement IC50 at a single concentration; low affinity site; read-out: 2B (μM) Ki*; cited from earlier work
NR2D [18] = target: T3, NR2D; experiment: Literature equilibrium binding displacement, NR2D (Table 1)
NR2A [19] = target: T1, NR2A; details: Ki estimated from equilibrium binding displacement IC50 at a single concentration; low affinity site; read-out: 2A (μM) Ki*; cited from earlier work
NR2C [20] = target: T4, NR2C; details: Ki estimated from equilibrium binding displacement IC50 at a single concentration; low affinity site; read-out: 2C (μM) Ki*; cited from earlier work
NR2B [21] = target: T2, NR2B; experiment: Literature equilibrium binding displacement, NR2B (Table 1)
NR2D [22] = target: T3, NR2D; details: Ki estimated from equilibrium binding displacement IC50 at a single concentration; low affinity site; read-out: 2D (μM) Ki*; cited from earlier work
[23] = not surmounted by agonists at 500-fold of EC50

Sequence of NR1/NR2D (Rattus norvegicus, UniProt P35439+Q62645) (Q62645 28-1323, other chains not shown): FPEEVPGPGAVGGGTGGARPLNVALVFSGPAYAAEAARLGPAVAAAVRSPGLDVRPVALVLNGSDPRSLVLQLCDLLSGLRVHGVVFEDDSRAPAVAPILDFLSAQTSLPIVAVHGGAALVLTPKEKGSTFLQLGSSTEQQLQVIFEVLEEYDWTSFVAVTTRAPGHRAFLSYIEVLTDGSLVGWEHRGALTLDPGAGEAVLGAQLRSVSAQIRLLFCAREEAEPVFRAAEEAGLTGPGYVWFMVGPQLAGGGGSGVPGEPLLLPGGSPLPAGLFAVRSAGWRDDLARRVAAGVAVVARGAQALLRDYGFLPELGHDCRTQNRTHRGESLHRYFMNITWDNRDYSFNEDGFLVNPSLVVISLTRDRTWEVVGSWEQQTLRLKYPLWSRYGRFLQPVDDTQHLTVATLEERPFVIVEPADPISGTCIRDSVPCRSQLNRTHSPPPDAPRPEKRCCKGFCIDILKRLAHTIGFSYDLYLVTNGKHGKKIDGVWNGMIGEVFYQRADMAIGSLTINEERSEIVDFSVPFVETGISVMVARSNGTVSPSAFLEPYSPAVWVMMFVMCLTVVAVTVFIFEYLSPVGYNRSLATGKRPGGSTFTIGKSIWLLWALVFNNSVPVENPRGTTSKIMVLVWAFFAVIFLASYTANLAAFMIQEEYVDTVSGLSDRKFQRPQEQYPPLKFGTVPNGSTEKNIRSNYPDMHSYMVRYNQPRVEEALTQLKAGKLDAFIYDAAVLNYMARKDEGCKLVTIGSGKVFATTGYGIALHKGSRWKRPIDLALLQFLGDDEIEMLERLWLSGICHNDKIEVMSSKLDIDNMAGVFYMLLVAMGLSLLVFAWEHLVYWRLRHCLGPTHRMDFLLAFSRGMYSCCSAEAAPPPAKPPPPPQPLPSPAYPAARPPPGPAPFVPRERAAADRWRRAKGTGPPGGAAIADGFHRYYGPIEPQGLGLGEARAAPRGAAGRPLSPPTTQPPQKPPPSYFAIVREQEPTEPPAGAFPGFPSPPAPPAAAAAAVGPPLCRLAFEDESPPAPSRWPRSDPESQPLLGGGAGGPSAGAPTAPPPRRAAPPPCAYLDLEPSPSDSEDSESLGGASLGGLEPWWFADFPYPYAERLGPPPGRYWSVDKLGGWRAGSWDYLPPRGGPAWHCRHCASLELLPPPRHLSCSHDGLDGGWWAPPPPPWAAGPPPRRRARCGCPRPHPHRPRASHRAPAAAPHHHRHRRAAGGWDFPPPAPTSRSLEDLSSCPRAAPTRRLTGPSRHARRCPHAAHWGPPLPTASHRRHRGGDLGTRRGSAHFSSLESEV
Sequence of NR1/NR2D (Rattus norvegicus, UniProt Q62645) (Q62645 28-1323, other chains not shown): as above
Sequence of NR1/NR2B (Rattus norvegicus, UniProt P35439+Q00960) (Q00960 27-1482, other chains not shown): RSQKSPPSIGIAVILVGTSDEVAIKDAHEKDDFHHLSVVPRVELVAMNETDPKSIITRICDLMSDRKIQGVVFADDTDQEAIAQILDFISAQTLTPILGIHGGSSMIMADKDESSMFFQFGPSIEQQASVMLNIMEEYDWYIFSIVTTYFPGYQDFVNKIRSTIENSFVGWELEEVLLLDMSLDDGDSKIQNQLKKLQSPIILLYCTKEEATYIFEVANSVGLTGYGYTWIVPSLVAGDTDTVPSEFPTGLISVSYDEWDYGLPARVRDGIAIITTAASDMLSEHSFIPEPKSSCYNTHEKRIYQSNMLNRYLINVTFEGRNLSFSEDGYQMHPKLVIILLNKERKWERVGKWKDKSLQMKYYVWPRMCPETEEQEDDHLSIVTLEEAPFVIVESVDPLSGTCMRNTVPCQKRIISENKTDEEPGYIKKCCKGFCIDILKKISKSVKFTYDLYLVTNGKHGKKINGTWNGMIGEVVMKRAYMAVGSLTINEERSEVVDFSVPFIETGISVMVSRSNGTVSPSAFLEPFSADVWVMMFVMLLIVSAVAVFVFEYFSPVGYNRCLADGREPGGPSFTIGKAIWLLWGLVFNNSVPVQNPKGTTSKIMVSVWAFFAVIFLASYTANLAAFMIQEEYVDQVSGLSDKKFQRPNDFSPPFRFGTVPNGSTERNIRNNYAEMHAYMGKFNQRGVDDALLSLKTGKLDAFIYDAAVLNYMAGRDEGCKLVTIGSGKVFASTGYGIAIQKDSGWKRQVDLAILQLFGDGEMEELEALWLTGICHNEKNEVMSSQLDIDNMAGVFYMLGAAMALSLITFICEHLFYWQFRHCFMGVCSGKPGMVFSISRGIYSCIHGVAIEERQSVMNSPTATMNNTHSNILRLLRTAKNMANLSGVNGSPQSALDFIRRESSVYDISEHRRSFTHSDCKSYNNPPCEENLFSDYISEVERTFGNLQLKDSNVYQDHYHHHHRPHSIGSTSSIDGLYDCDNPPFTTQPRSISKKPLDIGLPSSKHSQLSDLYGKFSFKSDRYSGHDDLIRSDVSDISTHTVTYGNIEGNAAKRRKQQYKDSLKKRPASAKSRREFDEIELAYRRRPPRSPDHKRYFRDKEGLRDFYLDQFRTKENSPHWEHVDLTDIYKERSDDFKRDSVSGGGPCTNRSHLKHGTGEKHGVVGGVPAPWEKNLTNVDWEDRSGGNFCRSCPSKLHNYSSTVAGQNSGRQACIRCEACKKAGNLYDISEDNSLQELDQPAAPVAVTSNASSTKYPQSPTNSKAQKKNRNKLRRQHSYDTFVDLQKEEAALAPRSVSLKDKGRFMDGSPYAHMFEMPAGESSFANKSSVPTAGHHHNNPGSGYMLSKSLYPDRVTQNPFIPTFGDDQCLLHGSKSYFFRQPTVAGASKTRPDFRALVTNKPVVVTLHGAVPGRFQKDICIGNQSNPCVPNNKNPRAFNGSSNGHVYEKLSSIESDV
T1 sequence (Q12879 23-1464, other chains not shown): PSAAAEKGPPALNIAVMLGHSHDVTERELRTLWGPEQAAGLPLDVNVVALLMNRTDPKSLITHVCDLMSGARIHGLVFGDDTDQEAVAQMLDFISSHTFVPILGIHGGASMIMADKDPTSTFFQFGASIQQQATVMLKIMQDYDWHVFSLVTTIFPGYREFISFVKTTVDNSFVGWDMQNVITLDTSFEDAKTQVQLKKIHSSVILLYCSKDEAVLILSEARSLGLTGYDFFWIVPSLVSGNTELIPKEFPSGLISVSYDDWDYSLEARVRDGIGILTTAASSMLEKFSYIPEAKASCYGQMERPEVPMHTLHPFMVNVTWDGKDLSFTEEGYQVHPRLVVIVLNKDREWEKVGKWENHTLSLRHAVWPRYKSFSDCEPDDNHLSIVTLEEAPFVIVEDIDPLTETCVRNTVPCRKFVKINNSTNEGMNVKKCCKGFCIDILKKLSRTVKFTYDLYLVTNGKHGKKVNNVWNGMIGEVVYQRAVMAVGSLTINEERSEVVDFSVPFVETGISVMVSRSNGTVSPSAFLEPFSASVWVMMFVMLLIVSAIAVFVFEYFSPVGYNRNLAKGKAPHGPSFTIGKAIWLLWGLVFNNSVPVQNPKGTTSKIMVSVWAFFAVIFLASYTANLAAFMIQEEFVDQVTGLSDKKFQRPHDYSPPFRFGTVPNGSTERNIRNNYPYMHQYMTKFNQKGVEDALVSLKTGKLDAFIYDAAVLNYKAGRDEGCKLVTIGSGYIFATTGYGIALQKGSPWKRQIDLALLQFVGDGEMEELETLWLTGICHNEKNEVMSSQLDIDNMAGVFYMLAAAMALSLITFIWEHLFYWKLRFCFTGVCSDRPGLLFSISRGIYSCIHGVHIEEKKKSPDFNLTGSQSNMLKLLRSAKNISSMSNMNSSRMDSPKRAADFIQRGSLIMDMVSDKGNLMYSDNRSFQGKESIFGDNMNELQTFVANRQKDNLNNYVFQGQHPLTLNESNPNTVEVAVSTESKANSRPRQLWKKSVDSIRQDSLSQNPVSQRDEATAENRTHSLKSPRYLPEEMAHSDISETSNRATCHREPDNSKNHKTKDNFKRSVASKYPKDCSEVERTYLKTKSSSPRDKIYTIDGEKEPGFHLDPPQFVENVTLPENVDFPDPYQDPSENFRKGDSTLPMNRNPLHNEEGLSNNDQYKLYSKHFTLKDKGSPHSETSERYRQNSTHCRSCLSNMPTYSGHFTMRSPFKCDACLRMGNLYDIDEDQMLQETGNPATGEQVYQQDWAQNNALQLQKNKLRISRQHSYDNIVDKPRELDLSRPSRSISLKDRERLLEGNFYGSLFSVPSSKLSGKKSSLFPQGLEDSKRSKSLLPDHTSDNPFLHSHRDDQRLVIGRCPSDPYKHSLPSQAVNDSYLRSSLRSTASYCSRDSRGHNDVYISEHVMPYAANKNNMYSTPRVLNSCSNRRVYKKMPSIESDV
Sequence of GluR1 (P19490 19-907): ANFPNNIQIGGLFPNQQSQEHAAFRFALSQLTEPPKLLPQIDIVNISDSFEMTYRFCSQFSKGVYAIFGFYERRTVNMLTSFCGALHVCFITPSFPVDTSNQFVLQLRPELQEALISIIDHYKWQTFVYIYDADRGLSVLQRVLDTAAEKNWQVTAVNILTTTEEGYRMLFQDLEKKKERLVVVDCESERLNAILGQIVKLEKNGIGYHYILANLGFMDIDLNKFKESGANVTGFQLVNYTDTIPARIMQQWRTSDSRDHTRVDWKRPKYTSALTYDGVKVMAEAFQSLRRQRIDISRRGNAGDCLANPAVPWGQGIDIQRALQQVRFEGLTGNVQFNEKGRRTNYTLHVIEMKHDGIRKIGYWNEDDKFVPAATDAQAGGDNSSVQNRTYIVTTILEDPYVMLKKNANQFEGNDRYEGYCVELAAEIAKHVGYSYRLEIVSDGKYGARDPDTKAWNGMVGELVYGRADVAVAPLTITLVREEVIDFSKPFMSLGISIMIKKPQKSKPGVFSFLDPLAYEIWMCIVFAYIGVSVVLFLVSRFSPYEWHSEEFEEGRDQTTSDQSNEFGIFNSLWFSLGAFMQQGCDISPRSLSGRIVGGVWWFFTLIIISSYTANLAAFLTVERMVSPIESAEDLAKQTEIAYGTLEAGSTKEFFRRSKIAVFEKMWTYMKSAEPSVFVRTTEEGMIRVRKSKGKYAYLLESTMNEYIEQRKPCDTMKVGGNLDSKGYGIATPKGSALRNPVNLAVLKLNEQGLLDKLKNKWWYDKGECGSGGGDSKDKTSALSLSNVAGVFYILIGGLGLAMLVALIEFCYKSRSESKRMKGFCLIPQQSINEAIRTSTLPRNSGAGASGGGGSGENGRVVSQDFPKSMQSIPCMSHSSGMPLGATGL

2A/2B (ratio of Kb) (NR2B [3]): 0.2
Compound: C[C@H](N[C@@H](c1cccc2[nH]c(=O)c(=O)[nH]c12)P(=O)(O)O)c1ccc(Br)cc1 [NVP-AAM07]
Kb (NR2A [1]): 15.2 µM
selectivity for NR2A over NR2B (NR2A [1]; Schild analysis (Kb)): 5 fold
Kb (NR2B [2]): 78 µM

2A percent response at the maximum tested concentration (NR1/NR2A [4]): 85% at 100 μM
IC50 (NR1/NR2D [5]): 27 µM
IC50 (NR1/NR2C [6]): 33 µM
IC50 (NR1/NR2B [7]): 209 µM
Compound: Cc1nc2ccc(Br)cc2c(-c2ccccc2)c1C1=NN(C(=O)CCC(=O)O)C(c2ccc(Br)cc2)C1 (stereo not shown) [compound 1210]

IC50 (NR1/NR2A [8]): 123 µM
IC50 (NR1/NR2D [5]): 2 µM
IC50 (NR1/NR2C [9]; logistic fit, minimum forced to 0, read-out: 2C IC50): 4 µM
IC50 (NR1/NR2C [6]): 4 µM
IC50 (NR1/NR2B [10]; logistic fit, minimum forced to 0, read-out: 2B IC50): 22 µM
IC50 (NR1/NR2B [7]): 22 µM
Compound: O=C(O)CCC(=O)N1N=C(c2c(-c3ccccc3)c3cc(Cl)ccc3[nH]c2=O)CC1c1ccc(Br)cc1 (stereo not shown) [compound 1179]

Compound: O=c1[nH]c2cc(Cl)c(Cl)c([N+](=O)[O-])c2[nH]c1=O [ACEA-1021]
2A/2D (ratio of Kb) (NR2D [11]): 0.4
2A/2B (ratio of Kb) (NR2B [12]): 1.0
Kb (NR2A [1]): 0.004 µM
Kb (NR2B [2]): 0.004 µM
Kb (NR2D [13]): 0.011 µM
Kb (NR2C [14]): 0.003 µM

2A percent response at the maximum tested concentration (NR1/NR2A [4]): 87% at 100 μM
IC50 (NR1/NR2D [5]): 22 µM
IC50 (NR1/NR2C [6]): 33 µM
IC50 (NR1/NR2B [7]): 90 µM
Compound: O=C(O)CCC(=O)N1N=C(c2c(-c3ccccc3)c3cc(Br)ccc3[nH]c2=O)CC1c1ccc(F)cc1 (stereo not shown) [compound 1184]

effect on NR2A-containing receptors (NR1/NR2A [4]; in words): little effect
IC50 (NR1/NR2A [8]): 1370 µM
selectivity for NR1/NR2D compared to NR1/NR2A (NR1/NR2D [15]; fitted IC50 values): > 500 fold
IC50 (half maximally inhibiting concentration), NR1/NR2D (NR1/NR2D [15]; in words): low micromolar
maximum inhibition of NR1/NR2D receptor function (NR1/NR2D [15]; voltage clamp): 85%
IC50 (NR1/NR2D [5]): 1 µM
IC50 (half maximally inhibiting concentration), NR1/NR2C (NR1/NR2C [9]; in words): low micromolar
maximum inhibition of NR1/NR2C receptor function (NR1/NR2C [9]; voltage clamp): 85%
IC50 (NR1/NR2C [6]): 2 µM
remaining activity at 100 µM (GluR1; at 100 μM, read-out: GluR1 percent effect at the maximum tested concentration): 105%
effect on recombinant AMPA receptors (GluR1; in words): little effect
effect on NR2B-containing receptors (NR1/NR2B [10]; in words): little effect
IC50 (NR1/NR2B [7]): 1230 µM
effect on recombinant kainate receptors [16]: little effect
Compound: CCN(CC)C(=S)Oc1ccc(C(=O)Nc2cccc3ccccc23)cc1 [compound 1063]
mode of block of NR1/NR2D receptors (NR1/NR2D [15]; [23]): non-competitive and voltage-independent blocker
mode of block of NR1/NR2C receptors (NR1/NR2C [9]; [23]): non-competitive and voltage-independent blocker

Compound: O=C(/C=C/c1c(C(=O)[O-])[nH]c2cc(Cl)cc(Cl)c12)Nc1ccccc1.[Na+] [GV150, 526A]
potency estimated from few doses (NR2B [17]): 0.08 µM
2A/2D (ratio of Ki*) (NR2D [18]): 1.6*
potency estimated from few doses (NR2A [19]): 0.08 µM
potency estimated from few doses (NR2C [20]): 0.11 µM
2A/2B (ratio of Ki*) (NR2B [21]): 1.0*
potency estimated from few doses (NR2D [22]): 0.05 µM
